Reference: patent US20030207813A1, “Retroviral protease inhibitor combinations” (priority 1995, published 2003)
Values after ≈ are worked out from the molar mass of the structure shown.

Columns and labels:
Format in all cases: cell-based, HIV-1
[1] = system: RFRR (resistant strains selected from RF against Examples 1 and 2); experiment: CEM-T4 cell infection assay, reverse transcriptase readout, resistant isolate RFRR; settings: Human immunodeficiency virus 1, 168 h, Table 6, CEM-T4 cells, 7 days, read-out: Virus Isolate (EC50 ng/mL) RFRR
Text: (§1) RF represents the HIV-1 strain HIV-LRF and RFR represents a mixture of resistant strains obtained by selection of RF against the compound of Example 1. RFR comprises a mixture of viral strains having protease genotypes of G48V (14/40 clones); G48V, V82A (18/40 clones); G48V, L90S (2/40 clones); G48V, 154T, V82A (1/40 clones); G48M (1/40 clones); G48V, Q61H (1/40 clones); V13I, G48V (1/40 clones); G48V, F53L, V82A (1/40 clones); and G48V, V82A, C95Y (1/40 clones). RFR2 represents a mixture of resistant strains obtained by cloning RFR by three rounds of growth at limiting dilution. RFR2 comprises a mixture of viral strains having protease genotypes of G48V, V82A (13/15 clones); G17E, G48V, V82A (1/15 clones); and G48V, V82A, N37D, N88D (1/15 clones). RFRR represents a mixture of resistant strains obtained by selection of RF against the compounds of Examples 1 and 2 and then cloning by three rounds of growth at limiting dilution. RFRR comprises a mixture of viral strains having protease genotypes of G48V, 154T, L63P, V82A (7/9 clones); G48V, 154T, L63P, V82A, N88S (1/9 clones); and G48V, 154T, L63P, G73M, V82A (1/9 clones). SF162 represents the HIV-1 strain SF-162 and SF162R represents a mixture of resistant strains obtained by selection of SF162 against the compound of Example 1. SF162R comprises a mixture of viral strains having protease genotypes of M461, F53L, L63P, A71V, N88D (2/3 clones); and M46I, F53L, L63P, A71V, N88D, Q92R (1/3 clones). 89-959 represents the HIV-1 strain 89-959 and 89-959R represents a mixture of resistant strains obtained by selection of 89-959 against the compound of Example 2. 89-959R comprises a mixture of viral strains having protease genotypes of N88S (4/5 clones); and D25N, T26A, D30N, D37N, R41K, G73D, R87K, N88S (1/4 clones). NL4 represents the HIV-1 strain HIV-1NL4-3. NL4(G48V) represents a strain having a synthetically generated site-directed mutation in the protease from glycine to valine at amino acid position number 48. NL4(I84V) represents a strain having a synthetically generated site-directed mutation in the protease from isoleucine to valine at amino acid position number 84. NL4(R8Q,M46I) represents a strain having synthetically generated site-directed mutations in the protease from arginine to glutamine at amino acid position number 8 and methionine to isoleucine at amino acid position number 46. NL4(P22-538) represents a mixture of resistant strains obtained by selection of HIV-1NL4-3 against the compound of Example 10 after 22 passages comprising protease genotypes M46I, L63P, A71V, V82F, I84V (4/10); M46I, L63P, V82F, I84V (3/10); and M46I, A71V, V82F, I84V (3/10). NL4(P37-538) represents resistant strains obtained by selection of HIV-1NL4-3 against the compound of Example 10 after 37 passages comprising protease genotype M46I, L63P, A71V, 184A. NL4(538/524) represents resistant strains obtained by selection of NL4(P22-538) against the compound of Example 5 after 24 passages comprising protease genotype M46I, L63P, A71V, 184A. NL4(538/P7-AG) represents a mixture of resistant strains obtained by selection of NL4(P22-538) against the compound of Example 12 after 7 passages comprising protease genotypes M46I, L63P, A71V, 184A; and V321, V82I. NL4(538/P24-AG) represents resistant strains obtained by selection of NL4(P22-538) against the compound of Example 12 after 24 passages comprising protease genotype M46I, L63P, A71V, 184A. NLA(P19-003) represents resistant strains obtained by selection of HIV-1^NL4-3 against the compound of Example 9 after 19 passages comprising protease genotype R8K, M46I. NL4(P34-003) represents resistant strains obtained by selection of HIV-1^NL4-3 against the compound of Example 9 after 34 passages comprising protease genotype R8K, M46I, L63P, A71V, L90M.
The viral isolate resistance results summarized in Tables 4-6 were generated according to the following assay procedure or minor modifications thereof. Assays are performed in 96-well tissue culture plates. […]

NL4(I84V) = experiment: Viral isolate resistance assay per Markowitz et al., NL4(I84V); settings: Human immunodeficiency virus 1, Table 7
Text: RF represents the HIV-1 strain HIV-LRF and RFR represents a mixture of resistant strains obtained by selection of RF against the compound of Example 1. […] RFR2 represents a mixture of resistant strains obtained by cloning RFR by three rounds of growth at limiting dilution. […] RFRR represents a mixture of resistant strains obtained by selection of RF against the compounds of Examples 1 and 2 and then cloning by three rounds of growth at limiting dilution. […] SF162 represents the HIV-1 strain SF-162 and SF162R represents a mixture of resistant strains obtained by selection of SF162 against the compound of Example 1. […] 89-959 represents the HIV-1 strain 89-959 and 89-959R represents a mixture of resistant strains obtained by selection of 89-959 against the compound of Example 2. […] NL4 represents the HIV-1 strain HIV-1NL4-3. NL4(G48V) represents a strain having a synthetically generated site-directed mutation in the protease from glycine to valine at amino acid position number 48. NL4(I84V) represents a strain having a synthetically generated site-directed mutation in the protease from isoleucine to valine at amino acid position number 84. NL4(R8Q,M46I) represents a strain having synthetically generated site-directed mutations in the protease from arginine to glutamine at amino acid position number 8 and methionine to isoleucine at amino acid position number 46.

NL4(P22-538) = experiment: Viral isolate resistance assay per Markowitz et al., NL4(P22-538); settings: Human immunodeficiency virus 1; Table 9; selected against Example 10, 22 passages; read-out: Virus Isolate (EC50 nM) NL4(P22-538)
Text: as §1, with “NLA(P19-003) represents resistant strains obtained by selection of HIV-1^NL4-3 against the compound of Example 9 after 19 passages comprising protease genotype R8K, M46I. NL4(P34-003) represents resistant strains obtained by selection of HIV-1^NL4-3 against the compound of Example 9 after 34 passages comprising protease genotype R8K, M46I, L63P, A71V, L90M.” left out

NL4(538/P7-AG) = experiment: Viral isolate resistance assay per Markowitz et al., NL4(538/P7-AG); settings: Human immunodeficiency virus 1; Table 10; NL4(P22-538) selected against Example 12, 7 passages
Text: as §1, with “NLA(P19-003) represents resistant strains obtained by selection of HIV-1^NL4-3 against the compound of Example 9 after 19 passages comprising protease genotype R8K, M46I. NL4(P34-003) represents resistant strains obtained by selection of HIV-1^NL4-3 against the compound of Example 9 after 34 passages comprising protease genotype R8K, M46I, L63P, A71V, L90M.” left out

NL4(538/P24-AG) = experiment: Viral isolate resistance assay per Markowitz et al., NL4(538/P24-AG); settings: Human immunodeficiency virus 1; Table 10; NL4(P22-538) selected against Example 12, 24 passages
Text: as §1, with “NLA(P19-003) represents resistant strains obtained by selection of HIV-1^NL4-3 against the compound of Example 9 after 19 passages comprising protease genotype R8K, M46I. NL4(P34-003) represents resistant strains obtained by selection of HIV-1^NL4-3 against the compound of Example 9 after 34 passages comprising protease genotype R8K, M46I, L63P, A71V, L90M.” left out

Row | Compound | EC50 [1] | EC90 (NL4(I84V)) | EC50 (NL4(P22-538)) | EC50 (NL4(538/P7-AG)) | EC50 (NL4(538/P24-AG))
1 | CNCC(=O)N[C@H](C(=O)N[C@@H](Cc1ccccc1)[C@H](O)CN(CCC(C)C)C(=O)NC(C)(C)C)C(C)(C)C [Example 2, (2R,3S)-3-(N-methylaminoacetyl-L-tert-butylglycinyl)amino-1-(N-isoamyl-N-(tert-butylcarbamoyl))amino-4-phenyl-2-butanol] | 1110 ng/mL (≈ 2.08 µM) |  |  |  | 
2 | CC(C)(C)NC(=O)[C@@H]1CC2CCCC[C@@H]2CN1C[C@@H](O)[C@H](Cc1ccccc1)NC(=O)[C@H](CC(N)=O)NC(=O)c1ccc2ccccc2n1 (stereo in doubt) [Example 6, N-tert-Butyl decahydro-2-[2(R)-hydroxy-4-phenyl-3(S)-[[N-(2-quinolylcarbonyl)-L-asparaginyl]amino]butyl]-(4aR,8aS)-isoquinoline-3(S)-carboxamide] | 962 ng/mL (≈ 1.43 µM) | 90 nM | 150 nM | 2400 nM | 2400 nM
3 | CC(C)(C)NC(=O)[C@@H]1CN(Cc2cccnc2)CCN1C[C@@H](O)C[C@@H](Cc1ccccc1)C(=O)N[C@H]1c2ccccc2C[C@H]1O [Example 5, N-(2(R)-Hydroxy-1(S)-indanyl)-2(R)-phenylmethyl-4(S)-hydroxy-5-(1-(4-(3-pyridylmethyl)-2(S)-N′-(t-butylcarboxamido)-piperazinyl))-pentaneamide] | 982 ng/mL (≈ 1.6 µM) | 640 nM | 800 nM | 6400 nM | 6400 nM
4 | CC(C)CN(C[C@@H](O)[C@H](Cc1ccccc1)NC(=O)[C@H](CC(N)=O)NC(=O)c1ccc2ccccc2n1)C(=O)NC(C)(C)C (relative stereo) [Example 1, [1S-[1R*(R*),2S*]]-N^1-[3-[[[(1,1-dimethylethyl)amino]carbonyl])2-methylpropyl)amino]-2-hydroxy-1-(phenylmethyl)propyl]-2-[(2-quinolinylcarbonyl)amino]-butanediamide] | 5610 ng/mL (≈ 9.27 µM) |  |  |  | 
